Experiments:
[1] = target: Voltage-gated L-type calcium channel (Homo sapiens, UniProt Q13936+Q13698+Q01668+O60840); assay: Calcium channel antagonistic activity relative to 2,6-Dimethyl-4-(2-nitro-phenyl)-1,4-dihydro-pyridine-3,5-dicarboxylic acid dimethyl ester(=100); format: functional, Cavia porcellus; conditions: guinea pig
[2] = species: Cavia porcellus; assay: Inhibition of muscarinic receptor mediated [Ca2+] dependent contraction of guinea pig ileal longitudinal smooth muscle; format: functional

Row | Relative activity [1] | Compound | ID50 [2] [nM]
1 | ~ 18 | CCOC(=O)C1=C(C)NC(C)=C(C(=O)OCC)C1c1ccccc1 | 30
2 | 0.005 | COC(=O)C1=C(C)NC(C)=C(C(=O)OC)C1c1ccc(N(C)C)cc1 | 50000
3 | 18 | COC(=O)C1=C(C)NC(C)=C(C(=O)OC)C1c1ccccc1 | 28
4 | 4.6 | COC(=O)C1=C(C)N=C(C)/C(=C(\O)OC)C1c1cccc(C)c1 (configuration not stated) | 110

More lines, now with the values behind:

Row | Compound | Relative activity [1] | ID50 [2] [nM]
5 | COC(=O)C1=C(C)N=C(C)/C(=C(\O)OC)C1c1c(F)c(F)c(F)c(F)c1F (configuration not stated) |  | 0.9
6 | COC(=O)C1=C(C)N=C(C)/C(=C(\O)OC)C1c1cccc(C#N)c1 (configuration not stated) | 1.7 | 300
7 | COC(=O)C1=C(C)N=C(C)/C(=C(\O)OC)C1c1ccc(C)cc1 (configuration not stated) | < 0.05 | 50000
8 | COC(=O)C1=C(C)N=C(C)/C(=C(\O)OC)C1c1ccc([N+](=O)[O-])cc1[N+](=O)[O-] (configuration not stated) | < 0.05 | >50000
9 | COC(=O)C1=C(C)NC(C)=C(C(=O)OC)C1c1ccccc1[N+](=O)[O-] [NIFEDIPINE] | 100 | 5.1

Reference: ChEMBL document CHEMBL1122002, “Crystal structures and pharmacological activity of calcium channel antagonists: 2,6-dimethyl-3,5-dicarbomethoxy-4-(unsubstituted, 2-methyl-, 4-methyl-, 3-nitro-, 4-nitro-, and 2,4-dinitrophenyl)-1,4-dihydropyridine” (J Med Chem, 1982)
